We go through 25 compounds from patent US20250101041A1, “POSITIVE ALLOSTERIC MODULATORS OF THE MUSCARINIC ACETYLCHOLINE RECEPTOR M4” (Vanderbilt University, priority 2022, published 2025).

The assay addresses T1, human mAChR M4 (Homo sapiens, UniProt P08173).
T1 construct: expressed in transfected cells; host or cells: CHO-K1 (American Type Culture Collection), stably expressing hM4 and Gqi5
T1 sequence (P08173 1-479): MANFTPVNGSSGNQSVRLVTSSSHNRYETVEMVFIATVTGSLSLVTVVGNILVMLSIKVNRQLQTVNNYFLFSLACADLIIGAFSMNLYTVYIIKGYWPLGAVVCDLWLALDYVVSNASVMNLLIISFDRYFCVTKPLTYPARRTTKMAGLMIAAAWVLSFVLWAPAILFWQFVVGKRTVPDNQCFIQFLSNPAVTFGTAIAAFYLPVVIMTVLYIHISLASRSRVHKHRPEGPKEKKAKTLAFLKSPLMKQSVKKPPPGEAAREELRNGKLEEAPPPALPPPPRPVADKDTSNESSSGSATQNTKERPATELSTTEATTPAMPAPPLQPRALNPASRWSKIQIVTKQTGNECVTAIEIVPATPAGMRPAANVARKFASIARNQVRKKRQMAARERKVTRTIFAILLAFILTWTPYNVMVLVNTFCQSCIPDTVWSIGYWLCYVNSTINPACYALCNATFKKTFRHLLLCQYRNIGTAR
As to the kind of experiment: mAChR M4 cell-based functional assay: calcium mobilization (Fluo-4, FDSS), potentiation of EC20 acetylcholine response in hM4-Gqi5 CHO-K1 cells. Particulars: human M4; for Emax at 30 µM: CHO-K1, % ACh maximum at 30 μM; for EC50: potentiation of EC20 acetylcholine response, calcium mobilization. Summed up: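 Readout is the fluorescence-ratio rise at 1 Hz on FDSS, with PAM activity taken as concentration-dependent enhancement of the EC20 acetylcholine response, fitted four-parameter for EC50/Emax. hM4-Gqi5 CHO-K1 cells carried Fluo-4 AM dye; test compounds (11 points, 1:3) preceded EC20 acetylcholine additions at 144 s and 230 s.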

Usually Emax stands for the maximal effect, on the per cent scale that the assay sets. What is called EC50 is the concentration giving half of the maximal effect.

Consider `Cc1cc2nccc(=O)n2nc1N1CCc2ncc(NCC3CCOCC3)cc2C1` [Compound 2-91, 8-methyl-7-(3-(((tetrahydro-2H-pyran-4-yl)methyl)amino)-7,8-dihydro-1,6-naphthyridin-6(5H)-yl)-4H-pyrimido[1,2-b]pyridazin-4-one], for which the maximal effect (Emax) at 30 µM turned out to be 80% and the concentration giving a half-maximal response (EC50) amounted to 1820 nM.
The matching figures for `CCN(CC)c1cnc2c(c1)CN(c1nn3c(=O)ccnc3cc1C)CC2` [Compound 2-92, 7-(3-(diethylamino)-7,8-dihydro-1,6-naphthyridin-6(5H)-yl)-8-methyl-4H-pyrimido[1,2-b]pyridazin-4-one]: 70% and 863 nM.
Regarding `Cc1cc2nccc(=O)n2nc1N1CCc2ncc(N3CCOC(c4ccncc4)C3)cc2C1` (stereo not shown) [Compound 2-93, 8-methyl-7-(3-(2-(pyridin-4-yl)morpholino)-7,8-dihydro-1,6-naphthyridin-6(5H)-yl)-4H-pyrimido[1,2-b]pyridazin-4-one], the maximal response (Emax) at 30 µM is 75% and the concentration giving a half-maximal response (EC50) came to 1170 nM.
For `Cc1cc2nccc(=O)n2nc1N1CCc2ncc(Nc3cccc(F)c3C)cc2C1` [Compound 2-94, 7-(3-((3-fluoro-2-methylphenyl)amino)-7,8-dihydro-1,6-naphthyridin-6(5H)-yl)-8-methyl-4H-pyrimido[1,2-b]pyridazin-4-one] the same measures were 84% and 78 nM.
For `COc1ccc(C2CN(c3cnc4c(c3)CN(c3nn5c(=O)ccnc5cc3C)CC4)CCO2)cc1` (stereo not shown) [Compound 2-95, 7-(3-(2-(4-methoxyphenyl)morpholino)-7,8-dihydro-1,6-naphthyridin-6(5H)-yl)-8-methyl-4H-pyrimido[1,2-b]pyridazin-4-one] the same measures were 64% and 814 nM.
On to `Cc1cc2nccc(=O)n2nc1N1CCc2ncc(Nc3ccncc3)cc2C1` [Compound 2-97, 8-methyl-7-(3-(pyridin-4-ylamino)-7,8-dihydro-1,6-naphthyridin-6(5H)-yl)-4H-pyrimido[1,2-b]pyridazin-4-one], for which the Emax at 30 µM turned out to be 96% and the concentration giving a half-maximal response (EC50) amounted to 92 nM.
For `Cc1cc2nccc(=O)n2nc1N1CCc2ncc(Nc3ccccc3F)cc2C1` [Compound 2-98, 7-(3-((2-fluorophenyl)amino)-7,8-dihydro-1,6-naphthyridin-6(5H)-yl)-8-methyl-4H-pyrimido[1,2-b]pyridazin-4-one] the same measures were 90% and 19 nM.
For `Cc1cc2nccc(=O)n2nc1N1CCc2ncc(N3CCOC(Cc4ccccc4)C3)cc2C1` (stereo not shown) [Compound 2-99, 7-(3-(2-benzylmorpholino)-7,8-dihydro-1,6-naphthyridin-6(5H)-yl)-8-methyl-4H-pyrimido[1,2-b]pyridazin-4-one] the same measures were 66% and 416 nM.
As to `Cc1cc2nccc(=O)n2nc1N1CCc2ncc(Nc3cc(F)nc(F)c3)cc2C1` [Compound 2-100, 7-(3-((2,6-difluoropyridin-4-yl)amino)-7,8-dihydro-1,6-naphthyridin-6(5H)-yl)-8-methyl-4H-pyrimido[1,2-b]pyridazin-4-one], the Emax at 30 µM stood at 101% and the half-maximal effective concentration (EC50) is 39 nM.
As for `Cc1cc2nccc(=O)n2nc1N1CCc2ncc(Nc3ccc(C(C)C)nc3)cc2C1` [Compound 2-101, 7-(3-((6-isopropylpyridin-3-yl)amino)-7,8-dihydro-1,6-naphthyridin-6(5H)-yl)-8-methyl-4H-pyrimido[1,2-b]pyridazin-4-one], the maximum response (Emax) at 30 µM turned out to be 65% and the EC50 is 527 nM.
For `Cc1cnccc1Nc1cnc2c(c1)CN(c1nn3c(=O)ccnc3cc1C)CC2` [Compound 2-102, 8-methyl-7-(3-((3-methylpyridin-4-yl)amino)-7,8-dihydro-1,6-naphthyridin-6(5H)-yl)-4H-pyrimido[1,2-b]pyridazin-4-one] the same measures were 84% and 585 nM.
On to `Cc1cc2nccc(=O)n2nc1N1CCc2ncc(N3CCCc4cc(F)ccc43)cc2C1` [Compound 2-103, 7-(3-(6-fluoro-3,4-dihydroquinolin-1(2H)-yl)-7,8-dihydro-1,6-naphthyridin-6(5H)-yl)-8-methyl-4H-pyrimido[1,2-b]pyridazin-4-one], for which the maximum response (Emax) at 30 µM was 89% and the EC50 was 33 nM.
As to `Cc1cc2nccc(=O)n2nc1N1CCc2ncc(Nc3cc(F)cc(C#N)c3)cc2C1` [Compound 2-104, 3-fluoro-5-((6-(8-methyl-4-oxo-4H-pyrimido[1,2-b]pyridazin-7-yl)-5,6,7,8-tetrahydro-1,6-naphthyridin-3-yl)amino)benzonitrile], the maximum response (Emax) at 30 µM amounted to 85% and the concentration giving a half-maximal response (EC50) came to 46 nM.
Regarding `Cc1cc2nccc(=O)n2nc1N1CCc2ncc(Nc3cc(F)cc(F)c3)cc2C1` [Compound 2-105, 7-(3-((3,5-difluorophenyl)amino)-7,8-dihydro-1,6-naphthyridin-6(5H)-yl)-8-methyl-4H-pyrimido[1,2-b]pyridazin-4-one], the Emax at 30 µM amounted to 88% and the half-maximal effective concentration (EC50) was 19 nM.
For `Cc1cc2nccc(=O)n2nc1N1CCc2ncc(Nc3cccc(F)c3F)cc2C1` [Compound 2-106, 7-(3-((2,3-difluorophenyl)amino)-7,8-dihydro-1,6-naphthyridin-6(5H)-yl)-8-methyl-4H-pyrimido[1,2-b]pyridazin-4-one] the same measures were 84% and 32 nM.
The matching figures for `Cc1cc2nccc(=O)n2nc1N1CCc2ncc(Nc3cccc(F)n3)cc2C1` [Compound 2-107, 7-(3-((6-fluoropyridin-2-yl)amino)-7,8-dihydro-1,6-naphthyridin-6(5H)-yl)-8-methyl-4H-pyrimido[1,2-b]pyridazin-4-one]: 79% and 437 nM.
The matching figures for `Cc1cc2nccc(=O)n2nc1N1CCc2ncc(NC(=O)C3CC3)cc2C1` [Compound 2-108, N-(6-(8-methyl-4-oxo-4H-pyrimido[1,2-b]pyridazin-7-yl)-5,6,7,8-tetrahydro-1,6-naphthyridin-3-yl)cyclopropanecarboxamide]: 56% and 1650 nM.
For the compound `Cc1cc2nccc(=O)n2nc1N1CCc2ncc(NC(=O)C3COC3)cc2C1` [Compound 2-109, N-(6-(8-methyl-4-oxo-4H-pyrimido[1,2-b]pyridazin-7-yl)-5,6,7,8-tetrahydro-1,6-naphthyridin-3-yl)oxetane-3-carboxamide], the Emax at 30 µM worked out at 30%.
`Cc1cc2nccc(=O)n2nc1N1CCc2ncc(NC(=O)C3CCOCC3)cc2C1` [Compound 2-110, N-(6-(8-methyl-4-oxo-4H-pyrimido[1,2-b]pyridazin-7-yl)-5,6,7,8-tetrahydro-1,6-naphthyridin-3-yl)tetrahydro-2H-pyran-4-carboxamide]: the maximal response (Emax) at 30 µM was found to be 47% and the EC50 was 2200 nM.
As for `Cc1cc2nccc(=O)n2nc1N1CCc2ncc(Nc3ccncc3F)cc2C1` [Compound 2-111, 7-(3-((3-fluoropyridin-4-yl)amino)-7,8-dihydro-1,6-naphthyridin-6(5H)-yl)-8-methyl-4H-pyrimido[1,2-b]pyridazin-4-one], the Emax at 30 µM was 98% and the half-maximal effective concentration (EC50) came to 11 nM.
For `COc1cnccc1Nc1cnc2c(c1)CN(c1nn3c(=O)ccnc3cc1C)CC2` [Compound 2-112, 7-(3-((3-methoxypyridin-4-yl)amino)-7,8-dihydro-1,6-naphthyridin-6(5H)-yl)-8-methyl-4H-pyrimido[1,2-b]pyridazin-4-one] the same measures were 64% and 2710 nM.
The matching figures for `Cc1cc2nccc(=O)n2nc1N1CCc2ncc(Nc3ccncc3Cl)cc2C1` [Compound 2-113, 7-(3-((3-chloropyridin-4-yl)amino)-7,8-dihydro-1,6-naphthyridin-6(5H)-yl)-8-methyl-4H-pyrimido[1,2-b]pyridazin-4-one]: 97% and 48 nM.
Regarding `Cc1cc2nccc(=O)n2nc1N1CCc2ncc(Nc3c(F)ccnc3C)cc2C1` [Compound 2-114, 7-(3-((4-fluoro-2-methylpyridin-3-yl)amino)-7,8-dihydro-1,6-naphthyridin-6(5H)-yl)-8-methyl-4H-pyrimido[1,2-b]pyridazin-4-one], the Emax at 30 µM turned out to be 82% and the concentration for a half-maximal effect (EC50) worked out at 165 nM.
For `Cc1ccc(Nc2cnc3c(c2)CN(c2nn4c(=O)ccnc4cc2C)CC3)c(F)n1` [Compound 2-115, 7-(3-((2-fluoro-6-methylpyridin-3-yl)amino)-7,8-dihydro-1,6-naphthyridin-6(5H)-yl)-8-methyl-4H-pyrimido[1,2-b]pyridazin-4-one] the same measures were 93% and 329 nM.
The matching figures for `Cc1cc2nccc(=O)n2nc1N1CCc2ncc(Nc3cc(Cl)cnc3F)cc2C1` [Compound 2-116, 7-(3-((5-chloro-2-fluoropyridin-3-yl)amino)-7,8-dihydro-1,6-naphthyridin-6(5H)-yl)-8-methyl-4H-pyrimido[1,2-b]pyridazin-4-one]: 92% and 52 nM.
